Results as given in US10780139B1, “Hypericum revolutum extract as a vasodilator” (King Abdulaziz University, priority 2020, dated 2020).

Legend:
[1] = system: PE pre-contracted isolated aorta; assay: vasodilating activity, isolated artery technique (PE-precontracted isolated aorta); parameters: species or system Wistar rats; settings: for vasodilation of PE precontracted isolated aortae: isolated compounds 1-10 μM cumulative, vs time control, p<0.05, FIG. 7-8
Description: Male Wistar rats 6-8 weeks old (180-200 g) (King Fahd Medical Research Center, King Abdulaziz University, Jeddah, Saudi Arabia) were used in this study. Clear polypropylene cages containing 4 rats each were used to house the animals and provided access to purified water and standard rodent pellets. The animal housing conditions applied were constant involving alternating 12 hours light and dark, a temperature of 22±3° C., a relative humidity of 50-60%, and adequate ventilation. Experimental protocol was approved by the Research Ethical Committee, Faculty of Pharmacy, King Abdulaziz University, Jeddah, Saudi Arabia (approval number 126-1439) and was conducted in accordance with the Saudi Arabia Research Bioethics and Regulations.
All animals used for the purpose of this study received a standard pellet diet and drinking water. Animals were killed by decapitation with rodent guillotine and the descending thoracic aorta was carefully excised and cleaned from fat and connective tissue.
(§1) The vasodilating activities of the methanol extract, fractions, and isolated compounds were studied using the isolated artery technique as previously described (El-Bassossy et al., 2013; El-Bassossy et al., 2016). Briefly, aorta was excised, cleaned of any fats and connective tissue, and cut into 3 mm rings. Each ring was suspended in channels filled with 25 ml of Krebs Henseleit buffer (118 mM NaCl, 4.8 mM KCl, 2.5 mM CaCl2), 1.2 mM MgSO4, 1.2 mM KH2PO4, 25 mM NaHCO3, and 11.1 mM glucose) maintained at 37° C. and continuously aerated with gas consisting of 95% oxygen and 5% carbon dioxide. The buffer solution in the channels was changed every 30 minutes.
(§2) The aortic rings were left to equilibrate for 20 minutes at a resting tension of 1500 mg±50. Primary contraction and relaxation of the aorta were then performed by adding PE (10^−5 M) followed by ACh […]. After the tension was returned to resting state, cumulative concentrations of the total extract, fractions (1-10 μg/ml) or the pure isolated compounds (1-10 μM) were added to the organ bath containing the isolated aortae precontracted with PE (10 μM). The decrease in tension was measured as a measure of vasodilation activities.
(§3) In all experiments, similar PE-precontraction tension was achieved before testing the vasodilating responses.

[2] = system: PE pre-contracted endothelium-denuded aorta; assay: vasodilating activity in endothelium-denuded PE-precontracted isolated aorta; parameters: species or system Wistar rats; settings: isolated compounds, 10 μM, p<0.05; FIG. 7-8
Description: as §1, §2
In another set of experiments, endothelium was mechanically denuded in order to investigate its role in the vasodilation effect.
as §3

[3] = system: vascular NO production (isolated aorta); assay: NO production from isolated aorta, fluorescence probe DAF-FM; parameters: species or system Wistar rats; settings: 10 μM; DAF-FM 2.5 μM; 37° C.; FIG. 9
Description: Induction of intracellular NO production from the isolated aorta by the total extract, fraction I or the pure isolated compounds was investigated using the fluorescence probe DAF-FM as described in previous work with some modifications (Ghareib et al., 2015). Similar to previous technique, the thoracic aorta was excised, cleaned of fats, and cut into approximately 6 mm pieces. Each piece was added to a separate well in a 96-well black plate, kept in dim light, containing KHB/DAF-FM (2.5 μM) mixture (37° C.) and prepared directly before commencement of the procedure. After 3 minutes, 100 μl were carefully drawn and transferred to the adjacent column of wells after which 10 μM ACh was added to one of the aortic segments and 10 μg/ml of the total extract or fraction I or 10 μM of the pure isolated compounds was added to the other wells. Again after 3 minutes, 100 μl were drawn from the wells with the aortae and transferred to the next column of wells. For the blank, a row was kept without an aorta for each concentration of ACh was treated in the same manner. The fluorescence intensity for the withdrawn volumes (and not the column containing the aortae) was then measured at λex=485 nm and […] with the use of Monochromator SPECTRAMAX® M3 plate reader (Molecular Devices, Sunnyvale, Calif., USA).

[4] = ROS scavenging ability, DPPH; settings: DPPH 240 μM; 1, 3 and 10 μM; 10-minute reaction; FIG. 10
Description: The reactive oxygen species (ROS) scavenging ability of fraction I or pure isolated compounds was studied as previously reported with some modifications (Tarkhan et al., 2019). In a 96-well clear plate, the fraction I (1-10 μg/ml) or pure isolated compounds (1-10 μM) in methanol was added to DPPH solution (240 μM) in methanol/tris (1:1 v/v). For the time control (C), methanol was used instead of the fraction or compounds. DPPH was prepared immediately before addition to the plate. The absorbance was measured at 520 nm every minute for 10 minutes with the use of Monochromator SPECTRAMAX® M3 plate reader (Molecular Devices, Sunnyvale, Calif., USA).

| Compound | vasodilation of PE precontracted isolated aortae [1] | effect of endothelial denudation on vasodilation activity [2] | vascular NO production (DAF-FM fluorescence) compared with control [3] | DPPH free radical scavenging activity [4] | vasodilation of PE-precontracted isolated aortae ([1]; maximal extent reached, 1-10 μM, FIG. 7B) [%] |
| --- | --- | --- | --- | --- | --- |
| CC[C@H](CC[C@@H](C)[C@H]1CC[C@H]2[C@@H]3CC=C4C[C@@H](O)CC[C@]4(C)[C@H]3CC[C@]12C)C(C)C [compound 3, β-sitosterol] | concentration dependent vasodilation | completely blocked the vasodilation activity | induced NO production that reached statistical significance |  |  |
| COc1cc2c(=O)c3ccccc3oc2c(OC)c1OC [compound 5, 2,3,4-trimethoxy xanthone] | concentration dependent vasodilation | blocked the vasodilation activity |  | significant free radical scavenging activity |  |
| CCC(C)C(=O)c1c(O)c(C)c(OCC=C(C)C)c(C(=O)CC(C)C)c1O (stereo not shown) [compound 1, 3,5-dihydroxy-6-methyl-1-[(3-methylbut-2-en-1-yl)oxy]-2-(3-methylbutyryl)-4-(2-methylbutyryl)-benzene] | concentration dependent vasodilation |  |  |  |  |
| CC(C)=CCC(=O)C1CC23CC(Cl)C(C)(C)OC2(C(O)C=C(C)C)C(=O)C(C(=O)C(C)C)(C3=O)C1(C)C (stereo not shown) [compound 2, 3-chloro-9a-(1-hydroxy-3-methylbut-2-en-1-yl)-8-isobutyryl-2,2,7,7-tetramethyl-6-(4-methylpent-3-enoyl)hexahydro-2H-4a,8-methanocyclohepta[b]pyran-9,10(9aH)-dione] | reached statistical significance at concentrations of 3 and 10 μM | completely blocked the vasodilation activity | induced NO production that reached statistical significance |  | 50 |
| euxanthone [compound 4] | did not show any significant vasodilation | did not have any significant effect |  |  |  |
